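96-well plates; 48 h exposure; 5 concentrations. Endpoints by linear interpolation between flanking doses. Not reached: highest tested concentration assigned. Here, GI50 denotes the concentration required for 50% inhibition of growth.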 Activity calls are given as the source filed them. Cut-off read from the data, not from the text of the source: active = GI50 up to about 1.1 µM and inactive = higher.
Key:
Test in all cases: NCI anticancer screen, dose series, 48 h
CCRF-CEM = test system: CCRF-CEM
EKVX = test system: EKVX
HCT-116 = test system: HCT-116
HL-60 = test system: HL-60
IGROV-1 = test system: IGROV-1
K562 = test system: K562
LOX IMVI = test system: LOX IMVI
NCI/ADR-RES = test system: NCI/ADR-RES
OVCAR-3 = test system: OVCAR-3
OVCAR-4 = test system: OVCAR-4
OVCAR-5 = test system: OVCAR-5
OVCAR-8 = test system: OVCAR-8
SF-295 = test system: SF-295
SN12C = test system: SN12C
SW-620 = test system: SW-620
T47D = test system: T47D
TK-10 = test system: TK-10
U-251 = test system: U-251
UACC-257 = test system: UACC-257
UACC-62 = test system: UACC-62

| SMILES | GI50 (CCRF-CEM) | GI50 (EKVX) | GI50 (HCT-116) | GI50 (HL-60) | GI50 (IGROV-1) | GI50 (K562) | GI50 (LOX IMVI) | GI50 (NCI/ADR-RES) | GI50 (OVCAR-3) | GI50 (OVCAR-4) | GI50 (OVCAR-5) | GI50 (OVCAR-8) | GI50 (SF-295) | GI50 (SN12C) | GI50 (SW-620) | GI50 (T47D) | GI50 (TK-10) | GI50 (U-251) | GI50 (UACC-257) | GI50 (UACC-62) |
| --- | --- | --- | --- | --- | --- | --- | --- | --- | --- | --- | --- | --- | --- | --- | --- | --- | --- | --- | --- | --- |
| CC1(O)CC2(O)C=CC3=C(C(=O)c4cccc(O)c4C3=O)C2(O)C(=O)C1O (stereo not drawn) | 0.206 µM (active) | 2.44 µM (inactive) | 0.863 µM (active) | 0.478 µM (active) | 4.6 µM (inactive) | 0.94 µM (active) | 1.47 µM (inactive) | 7.83 µM (inactive) | 2.28 µM (inactive) | 1.51 µM (inactive) | 5.04 µM (inactive) | 3.56 µM (inactive) | 13.6 µM (inactive) | 3.28 µM (inactive) | 0.75 µM (active) | 1.64 µM (inactive) | 1.73 µM (inactive) | 4.04 µM (inactive) | 1.25 µM (inactive) | 2.94 µM (inactive) |
| CC(=O)NC1C(OCc2ccccc2)OC(CO)C(O)C1OC(C)C(=O)NC(C(=O)NC(CCC(=O)NCCCCNc1c2ccccc2nc2cccc([N+](=O)[O-])c12)C(N)=O)C(C)C (stereo not drawn) | – | 2.65 µM (inactive) | 0.975 µM (active) | 1.65 µM (inactive) | 2.05 µM (inactive) | 0.458 µM (active) | 1.67 µM (inactive) | 49.2 µM (inactive) | 2.13 µM (inactive) | 1.24 µM (inactive) | 2.71 µM (inactive) | 1.91 µM (inactive) | 4.99 µM (inactive) | 1.71 µM (inactive) | 0.993 µM (active) | 1.82 µM (inactive) | 3.1 µM (inactive) | 3.21 µM (inactive) | 3.14 µM (inactive) | 2.09 µM (inactive) |
| CC(=O)Nc1nc(Cl)cc(NCC2(CO)CCC2)n1 | > 100 µM (inactive) | > 100 µM (inactive) | > 100 µM (inactive) | > 100 µM (inactive) | > 100 µM (inactive) | > 100 µM (inactive) | > 100 µM (inactive) | > 100 µM (inactive) | > 100 µM (inactive) | > 100 µM (inactive) | > 100 µM (inactive) | > 100 µM (inactive) | > 100 µM (inactive) | > 100 µM (inactive) | > 100 µM (inactive) | > 100 µM (inactive) | – | > 100 µM (inactive) | > 100 µM (inactive) | > 100 µM (inactive) |
| COc1ccc(-c2cc(-c3ccco3)c(C#N)c(=S)n2C2OC(COC(C)=O)C(OC(C)=O)C(OC(C)=O)C2OC(C)=O)cc1 (stereo not drawn) | – | 13.5 µM (inactive) | 6.79 µM (inactive) | 3.98 µM (inactive) | 13.3 µM (inactive) | 2.43 µM (inactive) | 3.64 µM (inactive) | 12.7 µM (inactive) | 7.13 µM (inactive) | 2.54 µM (inactive) | 15.6 µM (inactive) | 3.78 µM (inactive) | 1.96 µM (inactive) | 10.1 µM (inactive) | 6.19 µM (inactive) | 5.24 µM (inactive) | 30.2 µM (inactive) | 5.94 µM (inactive) | – | 3.72 µM (inactive) |
| CCC(CCC(C)C1CCC2C3CC=C4CC(OC5OC(CO)C(O)C(O)C5O)CCC4(C)C3CCC12C)C(C)C (stereo not drawn) | > 100 µM (inactive) | > 100 µM (inactive) | > 100 µM (inactive) | > 100 µM (inactive) | > 100 µM (inactive) | – | > 100 µM (inactive) | > 100 µM (inactive) | > 100 µM (inactive) | > 100 µM (inactive) | > 100 µM (inactive) | > 100 µM (inactive) | 98.9 µM (inactive) | > 100 µM (inactive) | > 100 µM (inactive) | > 100 µM (inactive) | > 100 µM (inactive) | > 100 µM (inactive) | > 100 µM (inactive) | > 100 µM (inactive) |
| COc1ccc(C(NS(=O)(=O)c2ccc(C)cc2)c2c(C(CBr)OC)c3ccccc3n2S(=O)(=O)c2ccccc2)cc1OC (stereo not drawn) | 89.7 µM (inactive) | > 100 µM (inactive) | > 100 µM (inactive) | > 100 µM (inactive) | > 100 µM (inactive) | > 100 µM (inactive) | > 100 µM (inactive) | > 100 µM (inactive) | > 100 µM (inactive) | > 100 µM (inactive) | > 100 µM (inactive) | > 100 µM (inactive) | > 100 µM (inactive) | > 100 µM (inactive) | > 100 µM (inactive) | > 100 µM (inactive) | > 100 µM (inactive) | > 100 µM (inactive) | > 100 µM (inactive) | > 100 µM (inactive) |
| Cc1nc2ccccc2c(=O)n1NC(=O)c1ccccn1 | > 100 µM (inactive) | > 100 µM (inactive) | > 100 µM (inactive) | > 100 µM (inactive) | > 100 µM (inactive) | > 100 µM (inactive) | > 100 µM (inactive) | > 100 µM (inactive) | > 100 µM (inactive) | > 100 µM (inactive) | – | > 100 µM (inactive) | > 100 µM (inactive) | > 100 µM (inactive) | > 100 µM (inactive) | > 100 µM (inactive) | > 100 µM (inactive) | > 100 µM (inactive) | > 100 µM (inactive) | > 100 µM (inactive) |
| O=[N+]([O-])c1ccc(-c2nn3c(C45CC6CC(CC(C6)C4)C5)nnc3s2)c(Cl)c1 | > 100 µM (inactive) | > 100 µM (inactive) | > 100 µM (inactive) | > 100 µM (inactive) | > 100 µM (inactive) | > 100 µM (inactive) | > 100 µM (inactive) | > 100 µM (inactive) | > 100 µM (inactive) | > 100 µM (inactive) | > 100 µM (inactive) | > 100 µM (inactive) | > 100 µM (inactive) | > 100 µM (inactive) | > 100 µM (inactive) | > 100 µM (inactive) | > 100 µM (inactive) | > 100 µM (inactive) | – | > 100 µM (inactive) |
| NC(=O)c1cc2cc(Cl)cc(Cl)c2o/c1=N\c1ccc(F)cc1 | 56.8 µM (inactive) | 15.2 µM (inactive) | 17.3 µM (inactive) | 64.1 µM (inactive) | 26.4 µM (inactive) | 7.11 µM (inactive) | 27.6 µM (inactive) | 16 µM (inactive) | 21.2 µM (inactive) | 23.8 µM (inactive) | 19.6 µM (inactive) | 37.6 µM (inactive) | 18.5 µM (inactive) | 16.7 µM (inactive) | 30.3 µM (inactive) | 18.3 µM (inactive) | 14.3 µM (inactive) | 19.6 µM (inactive) | 19.5 µM (inactive) | 23.3 µM (inactive) |
| C[C@@H]1CCC2[C@@H](C)[C@@H](OCCO[C@H]3OC4O[C@@]5(C)CCC6[C@H](C)CCC([C@H]3C)[C@@]46OO5)OC3O[C@@]4(C)CCC1[C@]32OO4 (stereo partly drawn) | 0.0682 µM (active) | 1.48 µM (inactive) | 0.0251 µM (active) | 0.0583 µM (active) | 0.0652 µM (active) | 0.0212 µM (active) | 0.0565 µM (active) | 0.241 µM (active) | – | 0.0361 µM (active) | 0.0826 µM (active) | 0.0982 µM (active) | 0.405 µM (active) | 0.541 µM (active) | 0.0537 µM (active) | 0.0263 µM (active) | 0.206 µM (active) | 0.0902 µM (active) | 0.39 µM (active) | 0.279 µM (active) |
| NN/C(=N\S(=O)(=O)c1ccc(-c2ccccn2)s1)Nc1ccc(Cl)cc1 | – | 53.6 µM (inactive) | > 100 µM (inactive) | > 100 µM (inactive) | > 100 µM (inactive) | > 100 µM (inactive) | > 100 µM (inactive) | > 100 µM (inactive) | 73.8 µM (inactive) | 85.9 µM (inactive) | > 100 µM (inactive) | 83.6 µM (inactive) | 52.5 µM (inactive) | > 100 µM (inactive) | > 100 µM (inactive) | 38.1 µM (inactive) | > 100 µM (inactive) | 44.2 µM (inactive) | > 100 µM (inactive) | > 100 µM (inactive) |
| O=C1C(O)=C(C(CCc2ccccc2)C2=C(O)C(=O)c3ccccc3C2=O)C(=O)c2ccccc21 | 37.9 µM (inactive) | 61.1 µM (inactive) | 40 µM (inactive) | 1.1 µM (active) | 34.6 µM (inactive) | – | 5.26 µM (inactive) | > 100 µM (inactive) | 30.7 µM (inactive) | 67.9 µM (inactive) | > 100 µM (inactive) | 57.1 µM (inactive) | 6.11 µM (inactive) | 56 µM (inactive) | 47.5 µM (inactive) | > 100 µM (inactive) | > 100 µM (inactive) | 45.6 µM (inactive) | 13.4 µM (inactive) | 13.7 µM (inactive) |
| O=C1OCC2OC(=O)c3cc(O)c(O)c(O)c3-c3c(O)c(O)c(O)c4c3C(=O)OC(C2OC(=O)c2cc(O)c(O)c(O)c2-c2c1cc(O)c(O)c2O)C1OC(=O)C2C4=C(O)C(=O)C23Oc2cc(O)c4c(c2[C@H]13)O[C@H](c1ccc(O)c(O)c1)[C@@H](O)C4 (stereo partly drawn) | 19.4 µM (inactive) | 12.7 µM (inactive) | 17.3 µM (inactive) | 18.5 µM (inactive) | 26.4 µM (inactive) | 26 µM (inactive) | 14.8 µM (inactive) | 23.3 µM (inactive) | 30.1 µM (inactive) | 15.7 µM (inactive) | 14.6 µM (inactive) | 22.2 µM (inactive) | 19.8 µM (inactive) | 18 µM (inactive) | 20.6 µM (inactive) | 20.7 µM (inactive) | – | 16.6 µM (inactive) | 29 µM (inactive) | 20.4 µM (inactive) |
| CC1(C)N=C(N)N=C(N)N1c1cccc(Cl)c1 | 3.76 µM (inactive) | > 100 µM (inactive) | 0.461 µM (active) | > 100 µM (inactive) | 4.93 µM (inactive) | 3.66 µM (inactive) | 2.54 µM (inactive) | 0.681 µM (active) | 22.4 µM (inactive) | > 100 µM (inactive) | 9.12 µM (inactive) | – | 1.83 µM (inactive) | 10.3 µM (inactive) | > 100 µM (inactive) | > 100 µM (inactive) | 91.2 µM (inactive) | 1.36 µM (inactive) | 5.56 µM (inactive) | 2.88 µM (inactive) |

Reference: ChEMBL document CHEMBL1201862, “PubChem BioAssay data set” (2004)
